PubChem BioAssay AID2060617 (Molecular Pharmacology Branch, DTP, NCI, 2025)
Values joined by “and” are separate entries in the source; they are usually repeats but may differ in a detail not shown here. Equal values may be shown once.

Test system: 485368-065-R4-J2-PDC spheroids with HUVEC/MSC, viability
Assay: Anticancer human tumor 485368-065-R4-J2-PDC patient-derived pancreatic carcinoma cell line growth inhibition [CLK]
Settings: for viability, T/C: stronger effect = lower value; active means viability on the fitted dose curve at most 10% of control; inactive means the rest
Outline: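 Patient-derived tumor cells grown as complex spheroids with HUVEC endothelial cells and mesenchymal stem cells, treated with drug combinations. Concentrations descend in half-log steps from near clinical Cmax, or from 10 microM if Cmax unknown.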

[1] = curve of first compound, second compound 0.0316 µM
[2] = curve of first compound, second compound 0.1 µM
[3] = curve of first compound, second compound 0.316 µM
[4] = curve of first compound, second compound 1 µM
[5] = curve of first compound, second compound 3.16 µM
[6] = curve of first compound, second compound 10 µM
[7] = second compound 0.0316 µM, first compound 0.0316 µM
[8] = second compound 0.0316 µM, first compound 0.1 µM
[9] = second compound 0.0316 µM, first compound 0.316 µM
[10] = second compound 0.0316 µM, first compound 1 µM
[11] = second compound 0.0316 µM, first compound 3.16 µM
[12] = second compound 0.0316 µM, first compound 10 µM
[13] = second compound 0.1 µM, first compound 0.0316 µM
[14] = second compound 0.1 µM, first compound 0.1 µM
[15] = second compound 0.1 µM, first compound 0.316 µM
[16] = second compound 0.1 µM, first compound 1 µM
[17] = second compound 0.1 µM, first compound 3.16 µM
[18] = second compound 0.1 µM, first compound 10 µM
[19] = second compound 0.316 µM, first compound 0.0316 µM
[20] = second compound 0.316 µM, first compound 0.1 µM
[21] = second compound 0.316 µM, first compound 0.316 µM
[22] = second compound 0.316 µM, first compound 1 µM
[23] = second compound 0.316 µM, first compound 3.16 µM
[24] = second compound 0.316 µM, first compound 10 µM
[25] = second compound 1 µM, first compound 0.0316 µM
[26] = second compound 1 µM, first compound 0.1 µM
[27] = second compound 1 µM, first compound 0.316 µM
[28] = second compound 1 µM, first compound 1 µM
[29] = second compound 1 µM, first compound 3.16 µM
[30] = second compound 1 µM, first compound 10 µM
[31] = second compound 3.16 µM, first compound 0.0316 µM
[32] = second compound 3.16 µM, first compound 0.1 µM
[33] = second compound 3.16 µM, first compound 0.316 µM
[34] = second compound 3.16 µM, first compound 1 µM
[35] = second compound 3.16 µM, first compound 3.16 µM
[36] = second compound 3.16 µM, first compound 10 µM
[37] = second compound 10 µM, first compound 0.0316 µM
[38] = second compound 10 µM, first compound 0.1 µM
[39] = second compound 10 µM, first compound 0.316 µM
[40] = second compound 10 µM, first compound 1 µM
[41] = second compound 10 µM, first compound 3.16 µM
[42] = second compound 10 µM, first compound 10 µM
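Further: spheroids exposed to compounds for seven days.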
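Wherever viability, T/C is given: 100% = DMSO vehicle control wells.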

C=CC(=O)N1CCN(c2nc(=O)n(-c3c(C)ccnc3C(C)C)c3nc(-c4c(O)cccc4F)c(F)cc23)C(C)C1 (centres undefined) + CNC(=O)c1ccc(Nc2nc(OC3CCCC3)c3c(-c4ccc5nc(C)oc5c4)c[nH]c3n2)c(OC)c1
inactive: viability, T/C [7] 94% | viability, T/C [8] 110% | viability, T/C [9] 89.5% | viability, T/C [10] 103% | viability, T/C [11] 93.3% | viability, T/C [12] 98.9% | viability, T/C [13] 105% | viability, T/C [14] 98.5% | viability, T/C [15] 99.8% | viability, T/C [16] 109% | viability, T/C [17] 95.9% | viability, T/C [18] 88.8% | viability, T/C [19] 82% | viability, T/C [20] 92.5% | viability, T/C [21] 92.2% | viability, T/C [22] 95% | viability, T/C [23] 80.8% | viability, T/C [24] 72.8% | viability, T/C [25] 85% | viability, T/C [26] 87.9% | viability, T/C [27] 79.4% | viability, T/C [28] 82.8% | viability, T/C [29] 78.1% | viability, T/C [30] 75.7% | viability, T/C [31] 76.7% | viability, T/C [32] 69.7% | viability, T/C [33] 72.2% | viability, T/C [34] 73.8% | viability, T/C [35] 77.5% | viability, T/C [36] 69.8% | viability, T/C [37] 77.8% | viability, T/C [38] 76.4% | viability, T/C [39] 75% | viability, T/C [40] 74.4% | viability, T/C [41] 74.2% | viability, T/C [42] 67.4%
> 10 µM: IC50 [1] | IC50 [2] | IC50 [3] | IC50 [4] | IC50 [5] | IC50 [6]

CC1(C)CCC(CN2CCN(c3ccc(C(=O)NS(=O)(=O)c4ccc(NCC5CCOCC5)c([N+](=O)[O-])c4)c(Oc4cnc5[nH]ccc5c4)c3)CC2)=C(c2ccc(Cl)cc2)C1 + CN1CCN(c2cc(C(=O)Nc3cc4cc(-c5cnn(C)c5)ccc4cn3)ccn2)CC1
6.55 µM: IC50 [3]
7.82 µM: IC50 [2]
inactive: viability, T/C [7] 102% | viability, T/C [8] 112% | viability, T/C [9] 114% | viability, T/C [10] 111% | viability, T/C [11] 122% | viability, T/C [12] 35.4% | viability, T/C [13] 113% | viability, T/C [14] 112% | viability, T/C [15] 112% | viability, T/C [16] 113% | viability, T/C [17] 121% | viability, T/C [18] 32.4% | viability, T/C [19] 86.8% | viability, T/C [20] 97.2% | viability, T/C [21] 94.6% | viability, T/C [22] 95.3% | viability, T/C [23] 104% | viability, T/C [24] 23.5%
< 0.0316 µM: IC50 [4] | IC50 [5] | IC50 [6]
active: viability, T/C [25] 2.85% | viability, T/C [26] 0.83% | viability, T/C [27] 2.34% | viability, T/C [28] 1.27% | viability, T/C [29] 1.79% | viability, T/C [30] 3.68% | viability, T/C [31] 2.29% | viability, T/C [32] 1.33% | viability, T/C [33] 2.68% | viability, T/C [34] 2.94% | viability, T/C [35] 3.79% | viability, T/C [36] 3.42% | viability, T/C [37] 1.77% | viability, T/C [38] 2.36% | viability, T/C [39] 4.56% | viability, T/C [40] 5.88% | viability, T/C [41] 3.51% | viability, T/C [42] 1.68%
8.03 µM: IC50 [1]

Nc1ccn(C2OC(CO)C(O)C2(F)F)c(=O)n1 (centres undefined) + CNC(=O)c1ccc(Nc2nc(OC3CCCC3)c3c(-c4ccc5nc(C)oc5c4)c[nH]c3n2)c(OC)c1
inactive: viability, T/C [7] 66.8% | viability, T/C [8] 45% | viability, T/C [9] 32.3% | viability, T/C [10] 35.2% | viability, T/C [11] 33.5% | viability, T/C [12] 30.5% | viability, T/C [13] 62.8% | viability, T/C [14] 43.4% | viability, T/C [15] 31.1% | viability, T/C [16] 33.4% | viability, T/C [17] 32.4% | viability, T/C [18] 26.6% | viability, T/C [19] 59.8% | viability, T/C [20] 34% | viability, T/C [21] 27.5% | viability, T/C [22] 24.8% | viability, T/C [23] 25.1% | viability, T/C [24] 21.8% | viability, T/C [25] 58% | viability, T/C [26] 28.2% | viability, T/C [27] 20.7% | viability, T/C [28] 17.2% | viability, T/C [29] 16.1% | viability, T/C [30] 13.9% | viability, T/C [31] 51.8% | viability, T/C [32] 28.1% | viability, T/C [33] 18.7% | viability, T/C [34] 15.4% | viability, T/C [35] 14.5% | viability, T/C [36] 13.2% | viability, T/C [37] 50% | viability, T/C [38] 24.5% | viability, T/C [39] 18.6% | viability, T/C [40] 16% | viability, T/C [41] 13.3% | viability, T/C [42] 11.2%
0.0343 µM: IC50 [5]
0.0493 µM: IC50 [3]
0.0732 µM: IC50 [1]
0.0432 µM: IC50 [4]
0.0653 µM: IC50 [2]
< 0.0316 µM: IC50 [6]

CC(=O)O[C@H]1C(=O)[C@@]2(C)[C@H]([C@H](OC(=O)c3ccccc3)[C@]3(O)C[C@H](OC(=O)[C@H](O)[C@@H](NC(=O)c4ccccc4)c4ccccc4)C(C)=C1C3(C)C)[C@]1(OC(C)=O)CO[C@@H]1C[C@@H]2O + CNC(=O)c1ccc(Nc2nc(OC3CCCC3)c3c(-c4ccc5nc(C)oc5c4)c[nH]c3n2)c(OC)c1
inactive: viability, T/C [7] 63.4% | viability, T/C [8] 49.2% | viability, T/C [9] 55.9% | viability, T/C [10] 62.6% | viability, T/C [11] 56.5% | viability, T/C [12] 55.8% | viability, T/C [13] 59.1% | viability, T/C [14] 66.3% | viability, T/C [15] 60.4% | viability, T/C [16] 56.7% | viability, T/C [17] 55.2% | viability, T/C [18] 76.5% | viability, T/C [19] 76.3% | viability, T/C [20] 79.7% | viability, T/C [21] 85.2% | viability, T/C [22] 85.6% | viability, T/C [23] 86.6% | viability, T/C [24] 102% | viability, T/C [25] 73.8% | viability, T/C [26] 82.2% | viability, T/C [27] 81.6% | viability, T/C [28] 83.5% | viability, T/C [29] 90.5% | viability, T/C [30] 91.9% | viability, T/C [31] 74.4% | viability, T/C [32] 80.1% | viability, T/C [33] 86.4% | viability, T/C [34] 78.6% | viability, T/C [35] 88% | viability, T/C [36] 88.9% | viability, T/C [37] 67.5% | viability, T/C [38] 78.8% | viability, T/C [39] 73.9% | viability, T/C [40] 77.5% | viability, T/C [41] 82.4% | viability, T/C [42] 95.4%
> 10 µM: IC50 [1] | IC50 [2] | IC50 [3] | IC50 [4] | IC50 [5] | IC50 [6]

C=CC(=O)Nc1cc(Nc2nccc(-c3cn(C)c4ccccc34)n2)c(OC)cc1N(C)CCN(C)C
inactive: viability, T/C (compound 0.000949 µM) 109% and 99.5% | viability, T/C (compound 0.003 µM) 97.1% and 97.7% | viability, T/C (compound 0.00949 µM) 97.5% and 83.8% | viability, T/C (compound 0.03 µM) 104% and 97.5% | viability, T/C (compound 0.0949 µM) 110% and 96.7% | viability, T/C (compound 0.3 µM) 107% and 99.8%
> 0.3 µM: IC50 (curve of compound)

O=C(c1cc(Cc2n[nH]c(=O)c3ccccc23)ccc1F)N1CCN(C(=O)C2CC2)CC1 + CN1CCN(c2cc(C(=O)Nc3cc4cc(-c5cnn(C)c5)ccc4cn3)ccn2)CC1
active: viability, T/C [25] 1.08% | viability, T/C [26] 1.02% | viability, T/C [27] 1.67% | viability, T/C [28] 2.06% | viability, T/C [29] 2.06% | viability, T/C [30] 2.39% | viability, T/C [31] 1.23% | viability, T/C [32] 1.3% | viability, T/C [33] 1.64% | viability, T/C [34] 2.47% | viability, T/C [35] 1.39% | viability, T/C [36] 3.02% | viability, T/C [37] 1.53% | viability, T/C [38] 1.87% | viability, T/C [39] 2.81% | viability, T/C [40] 2.7% | viability, T/C [41] 2.29% | viability, T/C [42] 1.73%
inactive: viability, T/C [7] 92.6% | viability, T/C [8] 111% | viability, T/C [9] 106% | viability, T/C [10] 110% | viability, T/C [11] 105% | viability, T/C [12] 82.6% | viability, T/C [13] 107% | viability, T/C [14] 105% | viability, T/C [15] 105% | viability, T/C [16] 103% | viability, T/C [17] 105% | viability, T/C [18] 76% | viability, T/C [19] 79% | viability, T/C [20] 79.9% | viability, T/C [21] 79.7% | viability, T/C [22] 81.1% | viability, T/C [23] 70.5% | viability, T/C [24] 47.5%
< 0.0316 µM: IC50 [4] | IC50 [5] | IC50 [6]
8.88 µM: IC50 [3]
> 10 µM: IC50 [1] | IC50 [2]

Cn1ncnc1[C@H]1c2n[nH]c(=O)c3cc(F)cc(c23)N[C@@H]1c1ccc(F)cc1
inactive: viability, T/C (compound 0.000316 µM) 94.6% and 84.6% | viability, T/C (compound 0.001 µM) 88.2% and 97.3% | viability, T/C (compound 0.00316 µM) 100% and 92.9% | viability, T/C (compound 0.01 µM) 94.7% and 89.8% | viability, T/C (compound 0.0316 µM) 94.3% and 105% | viability, T/C (compound 0.1 µM) 97.9% and 98.6%
> 0.1 µM: IC50 (curve of compound)
